ChEMBL document CHEMBL5338738, “Discovery of Novel Sesquiterpene Lactone Derivatives as Potent PKM2 Activators for the Treatment of Ulcerative Colitis” (J Med Chem, 2023)
The source made the active and inactive calls. The rule behind the calls is not given here.

Key:
T-cell = experiment: Immunomodulatory activity in C57BL/6 mouse mesenteric lymph node T cells assessed as inhibition of concanavalin A stimulated T-cell proliferation incubated for 68 hrs by CCK-8 assay; format: functional, cell-based; details: C57BL/6, T-cell
Pyruvate kinase PKM [1] = molecular target: T1, Pyruvate kinase PKM (Homo sapiens, UniProt P14618); experiment: Activation of PKM2 (unknown origin) at 3 uM incubated for 30 mins relative to control
Target sequence in this assay (P14618 2-531 limits assumed): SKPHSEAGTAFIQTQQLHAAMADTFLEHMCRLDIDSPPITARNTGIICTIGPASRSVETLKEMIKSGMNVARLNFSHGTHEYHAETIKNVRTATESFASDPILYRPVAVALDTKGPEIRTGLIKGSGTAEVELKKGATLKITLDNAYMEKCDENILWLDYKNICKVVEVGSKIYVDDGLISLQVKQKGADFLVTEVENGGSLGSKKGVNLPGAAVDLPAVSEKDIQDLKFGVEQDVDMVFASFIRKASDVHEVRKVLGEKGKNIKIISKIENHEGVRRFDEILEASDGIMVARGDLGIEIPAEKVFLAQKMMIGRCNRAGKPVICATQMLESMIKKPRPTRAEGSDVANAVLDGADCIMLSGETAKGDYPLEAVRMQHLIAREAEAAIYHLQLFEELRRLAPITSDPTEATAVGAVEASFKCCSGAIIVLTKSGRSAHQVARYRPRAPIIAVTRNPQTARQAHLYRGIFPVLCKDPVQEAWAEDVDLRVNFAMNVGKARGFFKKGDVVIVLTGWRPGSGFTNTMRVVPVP

Pyruvate kinase PKM [2] = molecular target: T1, Pyruvate kinase PKM; experiment: Activation of PKM2 (unknown origin) incubated for 30 mins
Target sequence in this assay (P14618 whole entry): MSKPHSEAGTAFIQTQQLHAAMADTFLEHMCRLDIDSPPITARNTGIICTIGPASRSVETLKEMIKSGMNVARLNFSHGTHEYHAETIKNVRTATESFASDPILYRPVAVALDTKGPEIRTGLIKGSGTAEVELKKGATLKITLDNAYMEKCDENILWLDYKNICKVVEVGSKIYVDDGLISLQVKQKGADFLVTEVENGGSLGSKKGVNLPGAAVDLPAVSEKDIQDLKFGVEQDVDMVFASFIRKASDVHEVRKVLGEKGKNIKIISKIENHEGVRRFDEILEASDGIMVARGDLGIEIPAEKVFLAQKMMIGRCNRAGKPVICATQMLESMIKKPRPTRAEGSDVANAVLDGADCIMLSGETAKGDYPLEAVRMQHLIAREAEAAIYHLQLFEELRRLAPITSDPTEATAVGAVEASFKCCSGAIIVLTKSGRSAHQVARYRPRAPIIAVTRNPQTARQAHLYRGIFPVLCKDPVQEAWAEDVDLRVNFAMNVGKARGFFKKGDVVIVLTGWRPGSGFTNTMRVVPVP

Activity (Pyruvate kinase PKM [1]) | EC50 (Pyruvate kinase PKM [2]) [nM] | SMILES | IC50 (T-cell) [nM]
 |  | C=C1C(=O)O[C@@H]2/C=C(\C)CC[C@H]3C(F)(F)[C@@]3(C)CC[C@@H]12 | 1230
inactive |  | C/C1=C\[C@H]2OC(=O)/C(=C\c3ccccc3)[C@@H]2CC/C(C)=C/CC1 | 16100
inactive |  | C=C1C(=O)O[C@@H]2/C=C(\C)CC/C=C(/CCl)CC[C@@H]12 | 15200
inactive |  | C=C1C(=O)O[C@H]2[C@H]1CC[C@]1(C)O[C@@H]1CC[C@@]1(C)O[C@@H]21 | 10600
 |  | C=C1C(=O)O[C@@H]2/C=C(\C)CC/C=C(/C(F)F)CC[C@@H]12 | 1210
 |  | C=C1C(=O)O[C@@H]2/C=C(\C)CC/C=C(/CF)CC[C@@H]12 | 1520
inactive |  | C=C1C(=O)O[C@@H]2/C=C(\C)CC/C=C(/C(=O)O)CC[C@@H]12 | 10200
inactive |  | C=C1C(=O)O[C@@H]2/C=C(\C)CC/C=C(/CBr)CC[C@@H]12 | 11800
 |  | C=C1C(=O)O[C@@H]2/C=C(\C)CC/C=C(/CO)CC[C@@H]12 | 720
 | 1510 | C=C1C(=O)O[C@@H]2/C=C(\C)CC/C=C(\C)CC[C@@H]12 [COSTUNOLIDE] | 2570
inactive |  | C/C1=C\[C@H]2OC(=O)[C@@H](C)[C@@H]2CC/C(C)=C/CC1 [DIHYDRO COSTUNOLIDE] | 15000
inactive |  | C=C1C(=O)O[C@@H]2/C=C(\C)CC/C=C(/C=O)CC[C@@H]12 | 25900
 |  | C=C1C(=O)O[C@@H]2/C=C(\C)CC/C=C(/COC(=O)[C@@H](NC(=O)[C@@H](N)[C@@H](C)CC)C(C)C)CC[C@@H]12 | 1010
 |  | C=C1C(=O)O[C@@H]2/C=C(\C)CCC[C@H](C)CC[C@@H]12 | 2890
 |  | C=C1C(=O)O[C@@H]2/C=C(\C)CC/C=C(/COC(=O)[C@@H](N)C(C)C)CC[C@@H]12 | 880
inactive |  | C=C1C(=O)O[C@@H]2C3=C(C)CC[C@@H](O)[C@]3(C)CC[C@@H]12 | 6170
 |  | C=C1C(=O)O[C@@H]2/C=C(\C)CC[C@H]3O[C@@]3(C)CC[C@@H]12 | 2630
 |  | C=C1C(=O)O[C@@H]2C[C@@H](C)CC[C@H]3O[C@@]3(C)CC[C@@H]12 | 1970
inactive |  | C=C1CC[C@@H](O)[C@]2(C)CC[C@H]3C(=C)C(=O)O[C@@H]3[C@@H]12 [REYNOSIN] | 6200
inactive |  | C=C1C(=O)O[C@@H]2[C@H]3C(C)=CC[C@@H](O)[C@]3(C)CC[C@@H]12 [SANTAMARIN] | 5560
 |  | C=C1C(=O)O[C@@H]2/C=C(\C)CC/C=C(/C(=O)OC)CC[C@@H]12 | 850
 |  | C=C1C(=O)O[C@@H]2/C=C(\C)CC/C=C(/C(=O)OCC)CC[C@@H]12 | 1030
 |  | C=C1C(=O)O[C@H]2[C@H]1CC[C@@H](C)CCC[C@@]1(C)O[C@@H]21 | 1420
